Results on three compounds are retold here after patent US20240174636A1, “NOVEL INDOLEAMINE 2,3-DIOXYGENASE INHIBITORS, PROCESSES FOR THE PREPARATION THEREOF AND PHARMACEUTICAL COMPOSITIONS COMPRISING THE SAME” (YUHAN CORPORATION, priority 2021, published 2024).

For orientation: IC50 means the concentration that inhibits the measured activity by half.

Series [1] in a line: Pharmacokinetics through oral administration in normal rats. The series is classed as in vivo. As to conditions: 10 mg/5 mL/kg; for Maximum plasma concentration: suspension in 0.5% methyl cellulose containing 0.2% Tween 80. The method, then: The pharmacokinetics of the compounds of Examples 2, 5 and 25 and BMS-986205 (control) were measured in rats, respectively. The compounds of Examples 2, 5 and 25 and BMS-986205 (control) were each suspended in 0.5% methyl cellulose containing 0.2% Tween 80 and then orally administered to rats at a dose of 10 mg/5 mL/kg. Blood samples were collected from the rat in predetermined times. The concentration of the compound in each sample was analyzed to obtain the blood concentration profiles (FIG. 1).

Series [2] addresses T1, IDO1 (Homo sapiens, UniProt P14902). Kind of series: IDO1 cellular activity using Hela cells (IFN-gamma induced IDO expression, kynurenine absorbance at 480 nm). The series is classed as cell-based. As to conditions: IDO induced with interferon gamma 50 ng/ml, 24 h compound incubation, read-out: Inhibitory Activity (IC50). As to the method:
Hela cells were seeded at a density of 20000 cells/well in 100 μl of a culture medium (EMEM supplemented with 10% FBS, penicillin 100 U/ml, and streptomycin 100 μg/ml) in a tissue culture-treated 96 well plate. The cells were cultured in a 5% carbon dioxide incubator for 24 hours, treated with recombinant human interferon gamma at the concentration of 50 ng/ml, and then cultured for 48 hours in a 5% carbon dioxide incubator to induce IDO expression.
The activities were measured using IDO1 cellular activity-measuring substrate (IDO1 cellular activity quickDetect supplements catalog: #62000-2, BPS Bioscience). Specifically, an assay medium was prepared by diluting IDO1 assay medium substrate 1 and IDO1 assay medium supplement 2 in a culture medium at a ratio of 1:100, respectively. The test compounds were diluted to the predetermined concentrations in the fresh assay medium. After removing the culture medium using a multi-pipet, 200 μl of each assay medium containing the test material was added into the respective well, followed by incubating in a 5% carbon dioxide incubator for 24 hours. The next day, 140 μl of culture medium from each well was transferred to a new 96-well plate. 10 μl of 6.1N trichloroacetic acid was added into each well, which was then cultured in a 50° C. incubator for 30 minutes. The plate was centrifuged at 2500 rpm for 10 minutes to settle any sediment. A detection reagent solution was prepared by diluting the detection reagent (component D kit, catalog: #62000-2, BPS Bioscience) 50-fold in acetic acid. 100 μl of the supernatant taken from the centrifuged plate was transferred to a new transparent 96-well plate and then 100 μl of the detection reagent solution was added thereto. After reacting at room temperature for 10 minutes, absorbance was measured at 480 nm wavelength. For analysis of the results, the absorbance (At) of the well containing Hela cells in which IDO protein expression was induced without treatment of an inhibitor was 100%; and the absorbance (Ab) of the well containing Hela cells in which IDO protein expression was not induced was 0. The % absorbance was calculated according to the following equation: % Absorbance=(A−Ab)/(At−Ab), A=absorbance of the well treated with the test compound.
The results obtained by calculating the 50% inhibitory concentration (C50) of each compound, from the absorbance values obtained as described above, are shown in Table 1 below.

For series [3], the target named is T1, IDO1. Description: IDO1 cellular activity using HEK293 cells transfected with IDO1 expression vector. The format is cell-based. On the set-up: host or cells: HEK293 cells, transient transfection with Lipofectamine 2000. Particulars: 24 h compound incubation, read-out: Inhibitory Activity (IC50). A digest of the protocol: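 HEK293 cells transiently transfected with IDO1 expression vector, expressed 24 h, then given compound in substrate-containing assay medium for 24 h. Medium TCA-treated 30 min at 50° C; product detected by absorbance at 480 nm, scaled between untreated IDO1-expressing cells (100%) and non-expressing cells (0).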

T1 sequence (P14902 whole entry): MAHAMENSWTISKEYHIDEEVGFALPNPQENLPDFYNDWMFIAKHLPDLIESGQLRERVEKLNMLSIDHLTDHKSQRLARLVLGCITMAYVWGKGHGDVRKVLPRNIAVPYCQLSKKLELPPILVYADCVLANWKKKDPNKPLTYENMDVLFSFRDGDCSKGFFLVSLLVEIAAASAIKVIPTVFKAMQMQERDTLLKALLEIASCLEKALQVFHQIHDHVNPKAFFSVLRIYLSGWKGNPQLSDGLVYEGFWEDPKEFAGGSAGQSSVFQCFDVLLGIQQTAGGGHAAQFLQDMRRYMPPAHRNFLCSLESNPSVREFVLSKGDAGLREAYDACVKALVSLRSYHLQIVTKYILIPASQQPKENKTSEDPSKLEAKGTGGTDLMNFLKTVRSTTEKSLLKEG

For the compound `C[C@H](C[C@H]1CC[C@@H](c2ccnc3ccc(F)cc32)CC1)Nc1ncnc2cc(Br)ccc12` [Example 2, 7-bromo-N-((R)-1-((cis)-4-(6-fluoroquinolin-4-yl)cyclohexyl)propan-2-yl)quinazolin-4-amine], in series [1], the “Area under the curve” value is 108441.1 ng·h/mL, the “Time to maximum plasma concentration” value amounted to 1 h and the Maximum plasma concentration was 18050.3 ng/mL. Further, the concentration for half-maximal inhibition (IC50) in series [2] was found to be 8.8 nM.
As to `C[C@H](C[C@H]1CC[C@@H](c2ccnc3ccc(F)cc32)CC1)Nc1nc2ccc(Cl)cc2o1` [Example 25, 6-chloro-N-((R)-1-((cis)-4-(6-fluoroquinolin-4-yl)cyclohexyl)propan-2-yl)benzo[d]oxazol-2-amine], in series [1], the “Area under the curve” value turned out to be 16018 ng·h/mL, the “Time to maximum plasma concentration” value worked out at 2 h and the Maximum plasma concentration is recorded as 2170.3 ng/mL. For the same compound, in series [3], the concentration for half-maximal inhibition (IC50) was 5.2 nM. Moreover, in series [2], the IC50 stood at 4.4 nM.
For `C[C@H](C[C@H]1CC[C@H](c2ccnc3ccc(F)cc32)CC1)Nc1cc(=O)oc2cc(Br)ccc12` [Example 5, 7-bromo-4-(((R)-1-((trans)-4-(6-fluoroquinolin-4-yl)cyclohexyl)propan-2-yl)amino)-2H-chromen-2-one], in series [1], the “Area under the curve” value is 73460.2 ng·h/mL, the “Time to maximum plasma concentration” value worked out at 4 h and the Maximum plasma concentration is 4476.3 ng/mL. Moreover, in series [2], the IC50 is 16 nM.
